Measurements taken from ChEMBL document CHEMBL5346873, “Strategic modification of low-activity natural antimicrobial peptides confers antibacterial potential in vitro and in vivo” (Eur J Med Chem, 2023).
In brackets after ≈: the same amount, converted by molar mass.

Tests used:
[1] = system: Pseudomonas aeruginosa; test: Antibacterial activity against Pseudomonas aeruginosa incubated for 16 to 20 hrs; assay type: functional; details: time 16-20 hrs
[2] = system: Klebsiella pneumoniae; test: Antibacterial activity against NDM Klebsiella pneumoniae incubated for 16 to 20 hrs; assay type: functional; details: time 16-20 hrs
[3] = system: Escherichia coli; test: Antibacterial activity against Escherichia coli incubated for 16 to 20 hrs; assay type: functional; details: time 16-20 hrs
[4] = system: Klebsiella aerogenes; test: Antibacterial activity against Enterobacter aerogenes incubated for 16 to 20 hrs; assay type: functional; details: time 16-20 hrs
[5] = system: Vibrio vulnificus; test: Antibacterial activity against Vibrio vulnificus 204 incubated for 16 to 20 hrs; assay type: functional; details: time 16-20 hrs
[6] = system: Vibrio alginolyticus; test: Antibacterial activity against Vibrio alginolyticus incubated for 16 to 20 hrs; assay type: functional; details: time 16-20 hrs
[7] = system: Vibrio harveyi; test: Antibacterial activity against Vibrio harveyi incubated for 16 to 20 hrs; assay type: functional; details: time 16-20 hrs
[8] = system: Aeromonas hydrophila; test: Antibacterial activity against Aeromonas hydrophila incubated for 16 to 20 hrs; assay type: functional; details: time 16-20 hrs
[9] = system: Edwardsiella tarda; test: Antibacterial activity against Edwardsiella tarda incubated for 16 to 20 hrs; assay type: functional; details: time 16-20 hrs
[10] = system: Vibrio anguillarum; test: Antibacterial activity against Listonella anguillarum incubated for 16 to 20 hrs; assay type: functional; details: time 16-20 hrs
[11] = system: Klebsiella oxytoca; test: Antibacterial activity against Klebsiella oxytoca incubated for 16 to 20 hrs; assay type: functional; details: time 16-20 hrs
[12] = system: Salmonella enterica; test: Antibacterial activity against Salmonella enterica incubated for 16 to 20 hrs; assay type: functional; details: time 16-20 hrs
[13] = system: Salmonella typhimurium; test: Antibacterial activity against Salmonella typhimurium incubated for 16 to 20 hrs; assay type: functional, Salmonella enterica subsp. enterica serovar Typhimurium; details: time 16-20 hrs
[14] = system: Staphylococcus haemolyticus; test: Antibacterial activity against Staphylococcus haemolyticus incubated for 16 to 20 hrs; assay type: functional; details: time 16-20 hrs
[15] = system: Streptococcus iniae; test: Antibacterial activity against Streptococcus iniae incubated for 16 to 20 hrs; assay type: functional; details: time 16-20 hrs
[16] = system: Streptococcus agalactiae; test: Antibacterial activity against Streptococcus agalactiae incubated for 16 to 20 hrs; assay type: functional; details: time 16-20 hrs
[17] = system: Enterococcus faecalis; test: Antibacterial activity against Enterococcus faecalis incubated for 16 to 20 hrs; assay type: functional; details: time 16-20 hrs
[18] = system: Enterococcus faecium; test: Antibacterial activity against Enterococcus faecium incubated for 16 to 20 hrs; assay type: functional; details: time 16-20 hrs
[19] = system: Candida tropicalis; test: Antifungal activity against Candida tropicalis incubated for 16 to 20 hrs; assay type: functional; details: time 16-20 hrs
[20] = system: Nakaseomyces glabratus; test: Antifungal activity against Candida glabrata incubated for 16 to 20 hrs; assay type: functional; details: time 16-20 hrs
[21] = system: Vibrio vulnificus; test: Antibacterial activity against Vibrio vulnificus V1 incubated for 16 to 20 hrs; assay type: functional; details: time 16-20 hrs
[22] = system: Vibrio vulnificus; test: Antibacterial activity against Vibrio vulnificus V2 incubated for 16 to 20 hrs; assay type: functional; details: time 16-20 hrs
[23] = system: Vibrio vulnificus; test: Antibacterial activity against Vibrio vulnificus V3 incubated for 16 to 20 hrs; assay type: functional; details: time 16-20 hrs
[24] = system: Klebsiella pneumoniae; test: Bactericidal activity against NDM Klebsiella pneumoniae incubated overnight; assay type: functional
[25] = system: Escherichia coli; test: Bactericidal activity against Escherichia coli incubated overnight; assay type: functional
[26] = system: Klebsiella aerogenes; test: Bactericidal activity against Enterobacter aerogenes incubated overnight; assay type: functional
[27] = system: Vibrio vulnificus; test: Bactericidal activity against Vibrio vulnificus 204 incubated overnight; assay type: functional
[28] = system: Vibrio alginolyticus; test: Bactericidal activity against Vibrio alginolyticus incubated overnight; assay type: functional
[29] = system: Vibrio harveyi; test: Bactericidal activity against Vibrio harveyi incubated overnight; assay type: functional
[30] = system: Aeromonas hydrophila; test: Bactericidal activity against Aeromonas hydrophila incubated overnight; assay type: functional
[31] = system: Edwardsiella tarda; test: Bactericidal activity against Edwardsiella tarda incubated overnight; assay type: functional
[32] = system: Vibrio anguillarum; test: Bactericidal activity against Listonella anguillarum incubated overnight; assay type: functional
[33] = system: Klebsiella oxytoca; test: Bactericidal activity against Klebsiella oxytoca incubated overnight; assay type: functional
[34] = system: Salmonella enterica; test: Bactericidal activity against Salmonella enterica incubated overnight; assay type: functional
[35] = system: Salmonella typhimurium; test: Bactericidal activity against Salmonella typhimurium incubated overnight; assay type: functional, Salmonella enterica subsp. enterica serovar Typhimurium
[36] = system: Staphylococcus haemolyticus; test: Bactericidal activity against Staphylococcus haemolyticus incubated overnight; assay type: functional
[37] = system: Streptococcus iniae; test: Bactericidal activity against Streptococcus iniae incubated overnight; assay type: functional
[38] = system: Streptococcus agalactiae; test: Bactericidal activity against Streptococcus agalactiae incubated overnight; assay type: functional
[39] = system: Enterococcus faecalis; test: Bactericidal activity against Enterococcus faecalis incubated overnight; assay type: functional
[40] = system: Enterococcus faecium; test: Bactericidal activity against Enterococcus faecium incubated overnight; assay type: functional
[41] = system: Candida tropicalis; test: Fungicidal activity against Candida tropicalis incubated overnight; assay type: functional
[42] = system: Nakaseomyces glabratus; test: Fungicidal activity against Candida glabrata incubated overnight; assay type: functional
[43] = system: Vibrio vulnificus; test: Bactericidal activity against Vibrio vulnificus V1 incubated overnight; assay type: functional
[44] = system: Vibrio vulnificus; test: Bactericidal activity against Vibrio vulnificus V2 incubated overnight; assay type: functional
[45] = system: Vibrio vulnificus; test: Bactericidal activity against Vibrio vulnificus V3 incubated overnight; assay type: functional
[46] = system: Vibrio vulnificus; test: Antibacterial activity against Vibrio vulnificus 204 assessed as induction of resistance development by measuring fold increase in MIC measured after 15 passages; assay type: functional
[47] = system: Acinetobacter baumannii; test: Antibacterial activity against Acinetobacter baumannii; assay type: functional
[48] = system: Vibrio vulnificus; test: Antibacterial activity against Vibrio vulnificus infected in BALB/c mouse wound infection model assessed as survival at 0.048 ug per animal administered 12 hrs post infection and measured for 14 days; assay type: functional; details: dose 0.048 µg; time 14 day
[49] = system: Pseudomonas aeruginosa; test: Bactericidal activity against Pseudomonas aeruginosa incubated overnight; assay type: functional
[50] = Salmonella enterica subsp. enterica serovar Typhimurium

## C[C@H]1c2cccc(O)c2C(=O)C2=C(O)[C@]3(O)C(=O)C(C(N)=O)=C(O)[C@@H](N(C)C)[C@@H]3[C@@H](O)[C@@H]21.O [DOXYCYCLINE]
[1]
  MIC: 6.25 µg/mL
[2]
  MIC: 25 µg/mL
[3]
  MIC: < 1.56 µg/mL
[4]
  MIC: 1.56 µg/mL
[5]
  MIC: < 1.56 µg/mL
[6]
  MIC: < 1.56 µg/mL
[7]
  MIC: < 1.56 µg/mL
[8]
  MIC: < 1.56 µg/mL
[9]
  MIC: < 1.56 µg/mL
[10]
  MIC: < 1.56 µg/mL
[11]
  MIC: 3.12 µg/mL
[12]
  MIC: < 1.56 µg/mL
[13]; Salmonella enterica
  MIC: < 1.56 µg/mL
[14]
  MIC: < 1.56 µg/mL
[15]
  MIC: < 1.56 µg/mL
[16]
  MIC: < 1.56 µg/mL
[17]
  MIC: 6.25 µg/mL
[18]
  MIC: < 1.56 µg/mL
[19]
  MIC: > 100 µg/mL
[20]
  MIC: > 100 µg/mL
[21]
  MIC: < 1.56 µg/mL
[22]
  MIC: < 1.56 µg/mL
[23]
  MIC: < 1.56 µg/mL
[24]
  MBC: 100 µg/mL
[25]
  MBC: 50 µg/mL
[26]
  MBC: 6.25 µg/mL
[27]
  MBC: < 1.56 µg/mL
[28]
  MBC: 12.5 µg/mL
[29]
  MBC: 12.5 µg/mL
[30]
  MBC: 12.5 µg/mL
[31]
  MBC: < 1.56 µg/mL
[32]
  MBC: 50 µg/mL
[33]
  MBC: 25 µg/mL
[34]
  MBC: 25 µg/mL
[35]; Salmonella enterica
  MBC: 50 µg/mL
[36]
  MBC: < 1.56 µg/mL
[37]
  MBC: < 1.56 µg/mL
[38]
  MBC: < 1.56 µg/mL
[39]
  MBC: 6.25 µg/mL
[40]
  MBC: < 1.56 µg/mL
[41]
  MFC: > 100 µg/mL
[42]
  MFC: > 100 µg/mL
[43]
  MBC: < 1.56 µg/mL
[44]
  MBC: < 1.56 µg/mL
[45]
  MBC: < 1.56 µg/mL
[46]
  fold change (FC): 128
[47]
  MIC: 0.048 µg/mL
[48]
  Activity: 25%

## C[C@@H](O)[C@H]1C(=O)N2C(C(=O)O)=C(S[C@@H]3CN[C@H](C(=O)N(C)C)C3)[C@H](C)[C@H]12 [MEROPENEM]
[1]
  MIC: 0.39 µg/mL (≈ 1.02 µM)
[2]
  MIC: 200 µg/mL (≈ 522 µM)
[3]
  MIC: 0.012 µg/mL (≈ 0.0313 µM)
[4]
  MIC: 0.024 µg/mL (≈ 0.0626 µM)
[5]
  MIC: 0.024 µg/mL (≈ 0.0626 µM)
[15]
  MIC: 0.39 µg/mL (≈ 1.02 µM)
[16]
  MIC: 0.024 µg/mL (≈ 0.0626 µM)
[47]
  MIC: 0.39 µg/mL (≈ 1.02 µM)

## COLISTIN
[1]
  MIC: < 1.56 µg/mL
[2]
  MIC: < 1.56 µg/mL
[3]
  MIC: < 1.56 µg/mL
[4]
  MIC: < 1.56 µg/mL
[5]
  MIC: 25 µg/mL
[6]
  MIC: 3.12 µg/mL
[7]
  MIC: > 100 µg/mL
[8]
  MIC: 100 µg/mL
[9]
  MIC: 6.25 µg/mL
[10]
  MIC: < 1.56 µg/mL
[11]
  MIC: 12.5 µg/mL
[12]
  MIC: < 1.56 µg/mL
[13]; [50]
  MIC: < 1.56 µg/mL
[14]
  MIC: 3.12 µg/mL
[15]
  MIC: 12.5 µg/mL
[16]
  MIC: 50 µg/mL
[17]
  MIC: < 1.56 µg/mL
[18]
  MIC: > 100 µg/mL
[19]
  MIC: 12.5 µg/mL
[20]
  MIC: > 100 µg/mL
[21]
  MIC: 50 µg/mL
[22]
  MIC: 50 µg/mL
[23]
  MIC: 50 µg/mL
[49]
  MBC: < 1.56 µg/mL
[24]
  MBC: < 1.56 µg/mL
[25]
  MBC: < 1.56 µg/mL
[26]
  MBC: < 1.56 µg/mL
[27]
  MBC: > 100 µg/mL
[28]
  MBC: 3.12 µg/mL
[29]
  MBC: > 100 µg/mL
[30]
  MBC: > 100 µg/mL
[31]
  MBC: 6.25 µg/mL
[32]
  MBC: 6.25 µg/mL
[33]
  MBC: 12.5 µg/mL
[34]
  MBC: < 1.56 µg/mL
[35]; [50]
  MBC: < 1.56 µg/mL
[36]
  MBC: 3.12 µg/mL
[37]
  MBC: 25 µg/mL
[38]
  MBC: 50 µg/mL
[39]
  MBC: 50 µg/mL
[40]
  MBC: > 100 µg/mL
[41]
  MFC: 12.5 µg/mL
[42]
  MFC: > 100 µg/mL
[43]
  MBC: 50 µg/mL
[44]
  MBC: 50 µg/mL
[45]
  MBC: 50 µg/mL
[46]
  fold change (FC): 16
